What is called Ki is the dissociation constant of the complex between target and ligand, obtained from inhibition or displacement. By pKb is commonly meant the Kb on a negative log10 scale, so that one unit is a factor of ten. A higher pKb goes with a small Kb.

Here are results for 7 molecules from ChEMBL document CHEMBL1144332, “1,2,4-Benzothiadiazine derivatives as alpha1 and 5-HT1A receptor ligands” (Bioorg Med Chem Lett, 2005).

The target in experiment [1] is Alpha adrenergic receptor 1A and 1B (Rattus norvegicus) (UniProt P15823+P43140). Briefly: Selectivity towards alpha 1B and alpha 1A adrenergic receptors. The format is protein assay.
In experiment [2] the target is Alpha adrenergic receptor 1A and 1D (Rattus norvegicus) (UniProt P23944+P43140). Briefly: Selectivity towards alpha 1D and alpha 1A adrenergic receptors. Type of experiment: protein assay.
For another experiment, the species on record is Rattus norvegicus. Description: Selectivity towards alpha 1D and alpha 1B adrenergic receptors.
The target of experiment [3] is T1, 5-hydroxytryptamine receptor 1A (Homo sapiens, UniProt P08908).
T1 sequence (P08908 whole entry): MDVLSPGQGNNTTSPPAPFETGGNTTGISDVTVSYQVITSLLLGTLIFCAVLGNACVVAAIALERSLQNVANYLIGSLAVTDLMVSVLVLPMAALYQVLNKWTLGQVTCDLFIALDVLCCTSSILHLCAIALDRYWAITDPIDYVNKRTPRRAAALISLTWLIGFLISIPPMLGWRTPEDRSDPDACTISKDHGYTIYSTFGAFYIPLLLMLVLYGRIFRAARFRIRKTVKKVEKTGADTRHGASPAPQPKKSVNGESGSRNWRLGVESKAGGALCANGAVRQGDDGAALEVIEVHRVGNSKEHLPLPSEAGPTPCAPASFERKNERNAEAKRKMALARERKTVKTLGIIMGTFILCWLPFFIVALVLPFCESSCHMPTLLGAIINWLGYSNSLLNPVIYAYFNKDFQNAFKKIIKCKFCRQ
Briefly: Inhibitory constant value against the 5-hydroxytryptamine 1A receptor.

Experiment [4] addresses T2, Alpha-1B adrenergic receptor (Rattus norvegicus) (UniProt P15823).
T2 sequence (whole entry): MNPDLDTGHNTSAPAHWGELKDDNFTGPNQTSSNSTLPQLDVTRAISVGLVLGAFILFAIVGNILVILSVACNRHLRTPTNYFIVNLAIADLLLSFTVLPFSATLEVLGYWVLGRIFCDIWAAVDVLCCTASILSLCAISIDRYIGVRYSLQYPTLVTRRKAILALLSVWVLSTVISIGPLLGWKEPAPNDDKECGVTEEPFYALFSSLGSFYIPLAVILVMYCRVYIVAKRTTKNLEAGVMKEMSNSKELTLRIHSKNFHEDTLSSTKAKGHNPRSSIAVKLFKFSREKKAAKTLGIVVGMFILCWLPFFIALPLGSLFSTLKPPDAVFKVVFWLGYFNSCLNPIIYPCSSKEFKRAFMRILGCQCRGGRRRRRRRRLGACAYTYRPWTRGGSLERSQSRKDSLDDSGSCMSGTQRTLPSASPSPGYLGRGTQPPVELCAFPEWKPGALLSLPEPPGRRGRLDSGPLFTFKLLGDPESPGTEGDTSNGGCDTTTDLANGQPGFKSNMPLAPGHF
Briefly: Antagonist potency against the alpha-1B adrenergic receptor determined in isolated rat spleen. Type of experiment: functional, tissue-based.

Experiment [5] concerns the target T3, Alpha-1A adrenergic receptor (Rattus norvegicus) (UniProt P43140).
T3 sequence (whole entry): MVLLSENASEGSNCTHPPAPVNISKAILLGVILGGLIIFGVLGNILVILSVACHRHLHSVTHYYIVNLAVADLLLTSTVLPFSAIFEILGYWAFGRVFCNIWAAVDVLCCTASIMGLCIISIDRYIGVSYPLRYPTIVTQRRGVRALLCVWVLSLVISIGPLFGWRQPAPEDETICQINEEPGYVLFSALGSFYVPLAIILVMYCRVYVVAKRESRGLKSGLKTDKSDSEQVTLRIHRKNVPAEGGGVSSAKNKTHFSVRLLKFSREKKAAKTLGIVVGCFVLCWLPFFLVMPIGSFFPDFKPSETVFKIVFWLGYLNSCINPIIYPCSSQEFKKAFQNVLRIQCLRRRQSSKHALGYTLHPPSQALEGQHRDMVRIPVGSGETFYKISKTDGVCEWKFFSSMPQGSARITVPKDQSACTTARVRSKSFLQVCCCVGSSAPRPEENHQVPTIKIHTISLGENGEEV
Briefly: Antagonist potency against the alpha-1A adrenergic receptor was determined in isolated rat prostatic vas deferens. Type of experiment: functional, tissue-based.

Experiment [6] has as its target T4, Alpha-1D adrenergic receptor (Rattus norvegicus) (UniProt P23944).
T4 sequence (whole entry): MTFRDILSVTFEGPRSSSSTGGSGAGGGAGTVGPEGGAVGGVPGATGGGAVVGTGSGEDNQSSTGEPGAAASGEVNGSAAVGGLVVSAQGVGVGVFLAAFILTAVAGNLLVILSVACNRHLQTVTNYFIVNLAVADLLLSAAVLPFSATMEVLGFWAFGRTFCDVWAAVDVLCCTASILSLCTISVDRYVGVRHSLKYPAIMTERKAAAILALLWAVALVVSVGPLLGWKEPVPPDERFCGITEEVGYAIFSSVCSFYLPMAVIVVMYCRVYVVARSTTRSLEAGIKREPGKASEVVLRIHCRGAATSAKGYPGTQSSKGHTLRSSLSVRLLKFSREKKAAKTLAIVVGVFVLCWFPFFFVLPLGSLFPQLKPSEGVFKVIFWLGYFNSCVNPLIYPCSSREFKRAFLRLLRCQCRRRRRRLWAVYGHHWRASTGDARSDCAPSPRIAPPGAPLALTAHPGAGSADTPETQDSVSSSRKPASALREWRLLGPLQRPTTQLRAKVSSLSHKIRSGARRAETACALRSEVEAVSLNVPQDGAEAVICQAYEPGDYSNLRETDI
Briefly: Antagonist potency against the alpha-1D adrenergic receptor was determined in isolated rat thoracic aorta. Type of experiment: functional, tissue-based.

The nature of experiment [7]: Selectivity towards 5-hydroxytryptamine 1A and alpha 1D adrenergic receptors was determined.
Experiment [8] addresses T5, 5-hydroxytryptamine receptor 1A (Homo sapiens) (UniProt P08908).
T5 sequence (whole entry): T1 sequence (P08908 whole entry)
Briefly: The maximal stimulation of [35S]GTP-gamma-S, binding (Emax) against the 5-hydroxytryptamine 1A receptor. Type of experiment: functional. Background: Binding of GTPγS marks nucleotide exchange on a G protein.

For experiment [9], the target named is T5, 5-hydroxytryptamine receptor 1A (Homo sapiens). Description: Potency against the 5-hydroxytryptamine 1A receptor determined by using [35S]GTP-gamma-S, binding. The format is functional.
For experiment [10], the target named is T1, 5-hydroxytryptamine receptor 1A. Briefly: Inhibitory constant value against 5-hydroxytryptamine 1A receptor.

SMILES strings stand for the structures.

Take `COc1ccccc1N1CCN(CC2Nc3ccccc3S(=O)(=O)N2)CC1` (configuration not stated): the Selectivity in experiment [1] was determined as 1.5; in [2], 0.35; in the experiment filed under Rattus norvegicus, 0.23; in experiment [7], 275. In experiment [3], this molecule had a Ki of 16.6 nM. The pKb in experiment [4] worked out at 5.97; in [5], 5.81; in experiment [6], 5.34.

Take `COc1ccccc1N1CCN(CC2Nc3cc(C)ccc3S(=O)(=O)N2)CC1` (configuration not stated): the Selectivity in experiment [1] is 2; in experiment [2], 0.95; in the experiment filed under Rattus norvegicus, 0.55; in experiment [7] it was less than 10. Besides, the pKb is 6.24 in experiment [4], 6 in experiment [5] and 5.98 in experiment [6].

As for `COc1ccccc1N1CCN(CC2=NS(=O)(=O)c3ccc(Cl)cc3N2)CC1`, the Selectivity stood at 8 in experiment [1], 295 in experiment [2], 38 in the experiment filed under Rattus norvegicus and 0.38 in experiment [7]. In [3], this molecule gave a Ki of 46.8 nM. Also, the pKb in experiment [4] was determined as 6.17; in experiment [5], 5.28; in experiment [6], 7.75.

`COc1ccccc1N1CCN(CCN2C(=O)CC3(CCCC3)CC2=O)CC1` [BMY-7378] displayed an Emax in [8] of 26. In [9], this molecule yielded a pD2 of 9.27. Further, in experiment [3], the Ki was 1.26 nM. Further, the pKb in experiment [4] came out at 7.48.

As to `COc1ccccc1N1CCN(CC2=NS(=O)(=O)c3ccc(C)cc3N2)CC1`, the Selectivity in experiment [1] was greater than 11; in experiment [2], greater than 3; in the experiment listed under Rattus norvegicus, 0.28. In addition, the Ki in [3] is 107 nM. Further, the pKb is 6.05 in [4], less than 5 in experiment [5] and 5.5 in experiment [6].

As to `COc1ccccc1N1CCN(CC2=NS(=O)(=O)c3ccccc3N2)CC1`, the Selectivity in experiment [1] is greater than 3; in experiment [2], greater than 389; in the experiment filed under Rattus norvegicus, 135; in experiment [7], less than 0.03. In addition, the Ki in experiment [10] was greater than 1000 nM. Moreover, the values for the pKb in experiment [4], in experiment [5] and in experiment [6] were 5.46, less than 5 and 7.59, respectively.

With `COc1ccccc1N1CCN(CC2Nc3cc(Cl)ccc3S(=O)(=O)N2)CC1` (configuration not stated), in experiment [8], the Emax was 23. Also, the Selectivity in [1] is 1; in [2] it was 1; in the experiment listed under Rattus norvegicus, 1; in [7] it was 1100. Besides, the pD2 in experiment [9] was 6.92. In [3], the affinity corresponds to a Ki of 9.12 nM. In addition, the figures for the pKb in experiment [4], in experiment [5] and in [6] were 5.09, 5.05 and 5, respectively.
